For test [1], the system named is HIV-1 Ba-L. In words: Infection of PHA-stimulated PBMCs with wild type HIV-1 Ba-L (early viral transcripts by PCR). In kind it is cell-based. The note with it: 2 h at 37 °C, compared to 100 µM control peptide, SEQ ID NO.4 and 44: 100-50-10 µM, SEQ ID NO. 127: 1 µM-100-10 nM. The method, then: This example is illustrated in Fig. 12. […] 4 (CSFINT), 44 (RDKVKK) and the complete gp120 region SEQ ID NO.127 (CSFNITTEIRDKVKK), where the entry experiment is performed with two strains of HIV-1 on peripheral blood cells (PBMCs) derived from healthy donors. In particular, strain III B uses CXCR4 as a co-receptor (X4) and Ba-L uses CCR5 (R5).
In the graphs the percent inhibition of infection due to the peptides is shown, as compared to infection in the presence of 100 µM of a control peptide. PHA-stimulated PBMCs have been incubated with the peptides and immediately infected for 2 h at 37 °C. This incubation time is sufficient to evaluate virus entry, by detecting the presence of early viral transcripts into the cytoplasm of infected cells. The peptide concentrations are as follows: SEQ ID NO.4 and 44: 100-50-10 µM; SEQ ID NO. 127: 1 µM-100-10 nM. In Fig. 12A is represented the effect of the peptides on the basal infection of both viral strains, in Fig. 12B the effect of the peptides on the infection following incubation with rTAT 7 nM. A peptide-dependent inhibition of the basal infection by both HIV-1 strains is present already in the basal infection, reflecting the presence of TAT in the viral supernatants. […]
Infection with wild type HIV-1. […] Amplified DNA was analyzed by Southern blot hybridization with a ^32P-labeled probe, and quantified by densitometry. […]

The subject of test [2] is TAT+/gp120-LV. In words: Entry of TAT+/gp120-LV into C8166 cells after co-culture with U937/PINCO or U937/TAT cells. The format is cell-based, HIV-1. The source says: This example is illustrated in Fig. 10. […] Said vector, as described in Example II, allows the expression of TAT, so that TAT is already present, as detailed described before, in the vector preparation and its amount is enhanced after the co-culture with U937/TAT cells. […] In particular, peptides with SEQ ID NO. 40 (RDKKKK), 42 (RDKKKV), 45 (KDKKEK), 47 (RDKKQK), 49 (RDKQQK), 50 (RDKVQK) revert the entry of more than 15%.
This example is illustrated in Fig. 11. […] 4 (CSFINT) and 44 (RDKVKK), where the entry experiment is performed with TAT+/gp120-LV, following 4 h co-culture of C8166 cells with U937/TAT cells. These two peptides are the ones derived from the Phage Display screening, and is here evaluated their ability of inhibit vector entry at concentrations lower than 100 µM (the concentration used in all the examples previously described). To verify if the integrity of the peptides is crucial for their activity, we have incubated the cells with said peptides in the presence of different protease inhibitors (aprotinin or a mix made by aprotinin, leupeptin, bestatin, pepstatin-A, AEBSF [4-(2-Aminoethyl) Benzenesulfonyl Fluoride Hydrochloride] and E-64 [(N-(N-(L-3-Transcarboxirane-2-Carbonyl)-L-Leucyl)-Agmatine)]). […] This example illustrates a way by which the power of said peptides can be improved.
Co-cultures and incubations with rTAT. […]
Transduction with HIV-1-derived lentivirus. Vector stocks were prepared by transient co-transfection of 293T cells with the following combinations of plasmids: pRRL.hPGK.GFP.SIN-18 + pCMV.DR8.2 + pMD.G (Naldini et al. (1996), supra) (VSV-G-LV) or pEnvHXB (Huang et al., J. Virol. 72 (1998), 8952-8960) (TAT+/gp120-LV); pRRL.hPGK.GFP.SIN-18 + pCMV.DR8.74 + pRSV-Rev ((Dull et al. (1998), supra) + pEnvHXB (TAT^-/gp120-LV). Vector concentration was determined by HIV-1 p24 Core profile ELISA following the manufacturer's instructions. The entry experiments were conducted on 10^5 cells per well of a 48-well plate in the presence of 8 µg/ml polybrene. The number of GFP-positive cells was analysed by FACS.

Turning to CSFINT [SEQ ID NO. 4], the “inhibition of the basal infection” value in test [1] is on record as approximately 70%. The “blocking of virus entry (TAT+/gp120-LV)” value in test [2] (concentration lower than 100 µM, no protease inhibitors, 4 h co-culture with U937/TAT cells) was “inefficient in blocking virus entry”. In test [2] (in the presence of protease inhibitors (aprotinin or mix), 4 h co-culture with U937/TAT cells), the “concentration at which the inhibitory effect is still visible” value is reported as 5 µM.
For RDKKQQ [SEQ ID NO. 47], the “reversion of TAT+/gp120-LV entry” value in test [2] (100 µM of the peptides, 4 h co-culture of C8166 cells with U937/PINCO or U937/TAT cells (effect potentiated by co-culture with U937/TAT)) is listed as “more than 15%”.

The values above are taken from patent publication EP1431306A1, “A mechanism for hiv-1 entry into host cells and peptides inhibiting this mechanism” (priority 2002, dated 2004).
